Assays:
PI3Kalpha = PI3Kalpha (Homo sapiens (Human), UniProt P42336); assay: HTRF PI3K biochemical assay, alpha isoform (selectivity versus delta); details: ratio PI3K-alpha IC50 value/PI3K-delta IC50 value
Protocol: (§1) HTRF PI3K Biochemical Assay to Measure Intrinsic Potency of Compound Inhibitors
(§2) This loss of signal is nonlinear with respect to both increasing product and time. This non-linear detection will impact accuracy of IC50 calculations; therefore, there is a need for a correction factor to obtain more accurate IC50 values. This correction is derived from a PIP3 standard curve run in a separate assay plate. All data were calculated using the ratio of acceptor (APC) to donor (Europium) fluorescence in each well of the assay plate. […] An IC50 was then calculated fitting the % inhibition data to the equation: % inhibition=min+(Max−min)/1+([inhibitor]/IC50)^n) where min is the % inhibition with inhibitor, max is the signal in DMSO control, and n is the Hill slope.
(§3) The biological data was collected using the methodology described above.
The determination of relative selectivity for a given compound is defined as the relative ratio of the (PI3K-alphaIC50 value/PI3K-delta IC50 value).

PI3Kdelta = PI3Kdelta (Homo sapiens (Human), UniProt O00329); assay: HTRF PI3K biochemical assay, delta isoform; details: 0.3 nM enzyme, 100 uM ATP, 50 uM PIP2; form screened (neutral or TFA salt)
Sequence of PI3Kdelta (O00329 whole entry, canonical isoform): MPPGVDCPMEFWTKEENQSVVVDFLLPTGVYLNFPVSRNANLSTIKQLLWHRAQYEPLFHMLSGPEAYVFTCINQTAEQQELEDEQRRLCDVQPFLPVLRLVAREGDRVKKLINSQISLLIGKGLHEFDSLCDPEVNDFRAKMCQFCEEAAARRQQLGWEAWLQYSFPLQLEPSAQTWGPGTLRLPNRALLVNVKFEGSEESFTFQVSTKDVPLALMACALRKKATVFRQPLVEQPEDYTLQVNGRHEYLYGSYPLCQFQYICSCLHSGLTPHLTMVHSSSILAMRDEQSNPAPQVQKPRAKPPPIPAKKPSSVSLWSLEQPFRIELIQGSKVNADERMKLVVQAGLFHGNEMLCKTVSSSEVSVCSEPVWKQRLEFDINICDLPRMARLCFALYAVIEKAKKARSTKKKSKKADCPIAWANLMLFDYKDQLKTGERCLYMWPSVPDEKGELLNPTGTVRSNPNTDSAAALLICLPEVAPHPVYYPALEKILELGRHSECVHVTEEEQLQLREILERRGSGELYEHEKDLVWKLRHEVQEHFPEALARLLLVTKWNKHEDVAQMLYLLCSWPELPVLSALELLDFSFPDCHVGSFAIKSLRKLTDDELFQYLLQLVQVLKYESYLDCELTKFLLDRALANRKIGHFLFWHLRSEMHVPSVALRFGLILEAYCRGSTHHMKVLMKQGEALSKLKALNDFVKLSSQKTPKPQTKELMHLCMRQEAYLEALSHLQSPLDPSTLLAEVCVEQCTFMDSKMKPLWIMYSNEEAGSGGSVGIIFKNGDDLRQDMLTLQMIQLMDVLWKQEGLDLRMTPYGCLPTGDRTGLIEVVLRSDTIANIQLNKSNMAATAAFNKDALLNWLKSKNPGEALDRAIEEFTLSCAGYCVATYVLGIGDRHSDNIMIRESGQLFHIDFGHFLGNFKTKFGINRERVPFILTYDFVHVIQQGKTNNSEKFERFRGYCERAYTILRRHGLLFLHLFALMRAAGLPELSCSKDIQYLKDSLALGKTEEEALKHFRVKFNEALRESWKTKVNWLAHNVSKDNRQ
Sequence of PI3Kdelta (P27986 whole entry partner, canonical isoform): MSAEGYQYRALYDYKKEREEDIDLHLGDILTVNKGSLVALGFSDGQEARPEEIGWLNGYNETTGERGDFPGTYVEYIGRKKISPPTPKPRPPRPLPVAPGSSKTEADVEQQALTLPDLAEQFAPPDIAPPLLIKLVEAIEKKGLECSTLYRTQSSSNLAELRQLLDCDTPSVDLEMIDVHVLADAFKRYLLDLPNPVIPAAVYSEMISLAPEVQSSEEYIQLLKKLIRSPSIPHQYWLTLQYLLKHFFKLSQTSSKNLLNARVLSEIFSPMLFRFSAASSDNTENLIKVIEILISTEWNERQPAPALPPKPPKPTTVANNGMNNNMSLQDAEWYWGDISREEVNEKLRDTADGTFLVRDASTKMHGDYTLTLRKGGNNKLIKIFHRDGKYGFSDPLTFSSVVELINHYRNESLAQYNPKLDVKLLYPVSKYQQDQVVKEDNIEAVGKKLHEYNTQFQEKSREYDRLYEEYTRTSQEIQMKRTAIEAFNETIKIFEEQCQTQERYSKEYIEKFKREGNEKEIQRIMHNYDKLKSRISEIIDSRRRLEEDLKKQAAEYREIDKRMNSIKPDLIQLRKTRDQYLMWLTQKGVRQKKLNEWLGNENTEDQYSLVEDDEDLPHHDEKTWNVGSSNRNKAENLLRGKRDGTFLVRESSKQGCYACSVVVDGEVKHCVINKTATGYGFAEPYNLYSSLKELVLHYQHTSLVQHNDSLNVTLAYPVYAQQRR
Protocol: as §1, §2, §3

Sequence of PI3Kalpha (P42336 whole entry, canonical isoform): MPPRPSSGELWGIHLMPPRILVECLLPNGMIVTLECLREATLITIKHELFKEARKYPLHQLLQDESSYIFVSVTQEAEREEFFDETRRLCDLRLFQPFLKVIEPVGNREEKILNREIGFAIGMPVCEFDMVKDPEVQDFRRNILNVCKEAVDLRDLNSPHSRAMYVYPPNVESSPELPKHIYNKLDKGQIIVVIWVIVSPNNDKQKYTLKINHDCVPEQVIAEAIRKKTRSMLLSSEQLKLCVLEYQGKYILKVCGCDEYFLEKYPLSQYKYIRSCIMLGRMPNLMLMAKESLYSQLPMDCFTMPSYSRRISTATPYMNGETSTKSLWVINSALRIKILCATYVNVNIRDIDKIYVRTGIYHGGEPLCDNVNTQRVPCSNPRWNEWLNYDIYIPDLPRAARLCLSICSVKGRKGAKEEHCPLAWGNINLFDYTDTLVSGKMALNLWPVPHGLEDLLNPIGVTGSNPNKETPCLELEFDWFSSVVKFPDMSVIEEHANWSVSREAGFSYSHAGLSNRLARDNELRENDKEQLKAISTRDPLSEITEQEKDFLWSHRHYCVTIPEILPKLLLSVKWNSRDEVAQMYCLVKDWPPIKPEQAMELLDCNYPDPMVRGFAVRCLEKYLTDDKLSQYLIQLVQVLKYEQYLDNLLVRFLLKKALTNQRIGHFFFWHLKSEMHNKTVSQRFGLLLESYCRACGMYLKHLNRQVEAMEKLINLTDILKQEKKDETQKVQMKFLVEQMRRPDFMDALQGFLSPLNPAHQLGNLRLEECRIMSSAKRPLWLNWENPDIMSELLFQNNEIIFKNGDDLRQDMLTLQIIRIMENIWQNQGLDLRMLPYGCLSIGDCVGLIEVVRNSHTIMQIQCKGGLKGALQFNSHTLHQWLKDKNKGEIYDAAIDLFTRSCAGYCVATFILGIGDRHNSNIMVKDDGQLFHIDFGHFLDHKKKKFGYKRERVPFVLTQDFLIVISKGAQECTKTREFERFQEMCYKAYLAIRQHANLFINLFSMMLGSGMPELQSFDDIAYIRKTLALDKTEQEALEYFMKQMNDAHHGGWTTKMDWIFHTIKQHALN
Sequence of PI3Kalpha (P27986 whole entry partner, canonical isoform): as the sequence (P27986 whole entry partner, canonical isoform) above

| Relative Selectivity versus PI3Kalpha (PI3Kalpha) | IC50 (PI3Kdelta) [nM] | SMILES |
| --- | --- | --- |
| >10 |  | Cc1ncc(-c2nc3c(-c4ccc5c(c4)C4(CCN(C(=O)C6CC6)CC4)C(=O)N5)ncnc3n2C)cn1 [Compound 3-25, 1′-(cyclopropanecarbonyl)-5-(9-methyl-8-(2-methylpyrimidin-5-yl)-9H-purin-6-yl)spiro[indoline-3,4′-piperidin]-2-one] |
| >10 |  | CCn1c(-c2cnc(C)nc2)nc2c(-c3ccc4c(c3)C3(CCCC3)C(=O)N4)ncnc21 [Compound 3-34, 5′-(9-ethyl-8-(2-methylpyrimidin-5-yl)-9H-purin-6-yl)spiro[cyclopentane-1,3′-indolin]-2′-one] |
| 9 |  | CCn1c(-c2cnc(C)nc2)nc2c(-c3ccc4c(c3)CNS4(=O)=O)ncnc21 [Compound 4-13, 5-(9-ethyl-8-(2-methylpyrimidin-5-yl)-9H-purin-6-yl)-2,3-dihydrobenzo[d]isothiazole 1,1-dioxide] |
| >10 |  | CCn1c(-c2cnc(C)nc2)nc2c(-c3ccc4c(c3)CN(C)S4(=O)=O)ncnc21 [Compound 4-14, 5-(9-ethyl-8-(2-methylpyrimidin-5-yl)-9H-purin-6-yl)-2-methyl-2,3-dihydrobenzo[d]isothiazole 1,1-dioxide] |
| 7 |  | CCn1c(-c2cnc(C)nc2)nc2c(-c3ccc4c(c3)CNC4=O)ncnc21 [Compound 4-15, 5-(9-ethyl-8-(2-methylpyrimidin-5-yl)-9H-purin-6-yl)isoindolin-1-one] |
| >10 |  | CCn1c(-c2cnc(C)nc2)nc2c(-c3ccc4c(c3)C(C)(c3ccccc3)OC(=O)N4)ncnc21 (stereo not shown) [Compound 4-16, 6-(9-ethyl-8-(2-methylpyrimidin-5-yl)-9H-purin-6-yl)-4-methyl-4-phenyl-1,4-dihydro-2H-benzo[d][1,3]oxazin-2-one] |
| >10 |  | CCn1c(-c2cnc(C)nc2)nc2c(-c3ccc4oc(=O)n(Cc5ccccc5)c4c3)ncnc21 [Compound 5-3, 3-benzyl-5-[9-ethyl-8-(2-methylpyrimidin-5-yl)-9H-purin-6-yl]-1,3-benzoxazol-2(3H)-one] |
| >10 |  | CCn1c(-c2cnc(C)nc2)nc2c(-c3ccc4oc(=O)n(CC5CCOCC5)c4c3)ncnc21 [Compound 5-4, 5-[9-ethyl-8-(2-methylpyrimidin-5-yl)-9H-purin-6-yl]-3-(tetrahydro-2H-pyran-4-ylmethyl)-1,3-benzoxazol-2(3H)-one] |

The remaining lines, values behind:

| SMILES | Relative Selectivity versus PI3Kalpha (PI3Kalpha) | IC50 (PI3Kdelta) [nM] |
| --- | --- | --- |
| CCn1c(-c2cnc(C)nc2)nc2c(-c3ccc4c(c3)C(C)(Cc3cncnc3)C(=O)N4)ncnc21 (racemic) [Compound 1-33, 5-(9-ethyl-8-(2-methylpyrimidin-5-yl)-9H-purin-6-yl)-3-methyl-3-(pyrimidin-5-ylmethyl)indolin-2-one] | >10 |  |
| CCn1c(-c2cnc(C)nc2)nc2c(-c3ccc4c(c3)C(C)(Nc3ccncc3)C(=O)N4)ncnc21 (racemic) [Compound 2-9, (R and S)-5-[9-ethyl-8-(2-methylpyrimidin-5-yl)-9H-purin-6-yl]-3-methyl-3-(pyridin-4-ylamino)-1,3-dihydro-2H-indol-2-one] | >10 | 144 |
| CCn1c(-c2cnc(C)nc2)nc2c(-c3ccc4c(c3)C(C)(N3CCC5OCCC53)C(=O)N4)ncnc21 (racemic) [Compound 2-10, (R and S)-5-[9-ethyl-8-(2-methylpyrimidin-5-yl)-9H-purin-6-yl]-3-(hexahydro-4H-furo[3,2-b]pyrrol-4-yl)-3-methyl-1,3-dihydro-2H-indol-2-one] | >10 | 14 |
| CCn1c(-c2cnc(C)nc2)nc2c(-c3ccc4c(c3)C(C)(N[C@H](C)C3CC3)C(=O)N4)ncnc21 (mixture of isomers) [Compound 2-11, 3-{[(1R)-1-cyclopropylethyl]amino}-5-[9-ethyl-8-(2-methylpyrimidin-5-yl)-9H-purin-6-yl]-3(R and S)-methyl-1,3-dihydro-2H-indol-2-one] | >10 | 15 |
| CCn1c(-c2cnc(C)nc2)nc2c(-c3ccc4c(c3)C(C)(N(C)CCOC)C(=O)N4)ncnc21 (racemic) [Compound 2-14, (R and S)-5-[9-ethyl-8-(2-methylpyrimidin-5-yl)-9H-purin-6-yl]-3-[(2-methoxyethyl)(methyl)amino]-3-methyl-1,3-dihydro-2H-indol-2-one] | >10 | 46 |
| CCn1c(-c2cnc(C)nc2)nc2c(-c3ccc4c(c3)C(C)(N(C)C(C)C)C(=O)N4)ncnc21 (racemic) [Compound 2-15, (R and S)-5-[9-ethyl-8-(2-methylpyrimidin-5-yl)-9H-purin-6-yl]-3-methyl-3-[methyl(1-methylethyl)amino]-1,3-dihydro-2H-indol-2-one] | >10 | 46 |
| CCn1c(-c2cnc(C)nc2)nc2c(-c3ccc4c(c3)C(C)(NCCOC)C(=O)N4)ncnc21 (racemic) [Compound 2-16, (R and S)-5-[9-ethyl-8-(2-methylpyrimidin-5-yl)-9H-purin-6-yl]-3-[(2-methoxyethyl)amino]-3-methyl-1,3-dihydro-2H-indol-2-one] | >10 | 43 |
| CCn1c(-c2cnc(C)nc2)nc2c(-c3ccc4c(c3)C(C)(N[C@H](C)C3CCC3)C(=O)N4)ncnc21 (mixture of isomers) [Compound 2-17, 3-{[(1R)-1-cyclobutylethyl]amino}-5-[9-ethyl-8-(2-methylpyrimidin-5-yl)-9H-purin-6-yl]-3(R and S)-methyl-1,3-dihydro-2H-indol-2-one] | >10 | 10 |
| CCn1c(-c2cnc(C)nc2)nc2c(-c3ccc4c(c3)C(C)(NCC3(C)CCC3)C(=O)N4)ncnc21 (racemic) [Compound 2-18, (R and S)-5-[9-ethyl-8-(2-methylpyrimidin-5-yl)-9H-purin-6-yl]-3-methyl-3-{[(1-methylcyclobutyl)methyl]amino}-1,3-dihydro-2H-indol-2-one] | >10 | 8 |
| CCn1c(-c2cnc(C)nc2)nc2c(-c3ccc4c(c3)C(C)(NCC3(C#N)CCC3)C(=O)N4)ncnc21 (racemic) [Compound 2-19, (R and S)-1-[({5-[9-ethyl-8-(2-methylpyrimidin-5-yl)-9H-purin-6-yl]-3-methyl-2-oxo-2,3-dihydro-1H-indol-3-yl}amino)methyl]cyclobutane-carbonitrile] | >10 | 22 |
| CCn1c(-c2cnc(C)nc2)nc2c(-c3ccc4c(c3)C(C)(NCC3CCC3)C(=O)N4)ncnc21 (racemic) [Compound 2-20, (R and S)-3-[(cyclobutylmethyl)amino]-5-[9-ethyl-8-(2-methylpyrimidin-5-yl)-9H-purin-6-yl]-3-methyl-1,3-dihydro-2H-indol-2-one] | >10 | 23 |
| CCn1c(-c2cnc(C)nc2)nc2c(-c3ccc4c(c3)C(C)(OC(C)C)C(=O)N4)ncnc21 (racemic) [Compound 2-73, 5-(9-ethyl-8-(2-methylpyrimidin-5-yl)-9H-purin-6-yl)-3-isopropoxy-3-methylindolin-2-one] | >10 |  |
| CCn1c(-c2cnc(C)nc2)nc2c(-c3ccc4c(c3)C(C)(OC3CCC3)C(=O)N4)ncnc21 (racemic) [Compound 2-74, 3-cyclobutoxy-5-(9-ethyl-8-(2-methylpyrimidin-5-yl)-9H-purin-6-yl)-3-methylindolin-2-one] | >10 |  |
| Cc1ncc(-c2nc3c(-c4ccc5c(c4)C(C)(OCC4CC4)C(=O)N5)ncnc3n2C)cn1 (racemic) [Compound 2-75, 3-(cyclopropylmethoxy)-3-methyl-5-(9-methyl-8-(2-methylpyrimidin-5-yl)-9H-purin-6-yl)indolin-2-one] | >10 |  |
| CCn1c(-c2cnc(C)nc2)nc2c(-c3ccc4c(c3)C(C#N)(CC(C)C)C(=O)N4)ncnc21 (stereo not shown) [Compound 1-11, 5-(9-Ethyl-8-(2-methylpyrimidin-5-yl)-9H-purin-6-yl)-3-isobutyl-2-oxoindoline-3-carbonitrile] | >10 |  |
| CCn1c(-c2cnc(C)nc2)nc2c(-c3ccc4c(c3)C(C)(Cc3ccccc3)CN4)ncnc21 (stereo not shown) [Compound 1-18, 6-(3-Benzyl-3-methylindolin-5-yl)-9-ethyl-8-(2-methylpyrimidin-5-yl)-9H-purine] | >10 |  |
| CCn1c(-c2cnc(C)nc2)nc2c(-c3ccc4c(c3)C(C)(Cc3ccccc3)CN4C(C)=O)ncnc21 (stereo not shown) [Compound 1-19, 1-(3-Benzyl-5-(9-ethyl-8-(2-methylpyrimidin-5-yl)-9H-purin-6-yl)-3-methylindolin-1-yl)ethan-1-one] | >10 |  |
| CCn1c(-c2cnc(C)nc2)nc2c(-c3ccc4c(c3)C(C)(Cc3ccccc3)CN4C)ncnc21 (stereo not shown) [Compound 1-22, 6-(3-Benzyl-1,3-dimethylindolin-5-yl)-9-ethyl-8-(2-methylpyrimidin-5-yl)-9H-purine] | >10 |  |
| CCn1c(-c2cnc(C)nc2)nc2c(-c3ccc4c(c3)C(C#N)(N3CC(C)(OC)C3)C(=O)N4)ncnc21 (stereo not shown) [Compound 2-77, 5-(9-ethyl-8-(2-methylpyrimidin-5-yl)-9H-purin-6-yl)-3-(3-methoxy-3-methylazetidin-1-yl)-2-oxoindoline-3-carbonitrile] | >10 |  |

Reference: patent US10544147B2, “Purine inhibitors of human phosphatidylinositol 3-kinase delta” (MERCK SHARP & DOHME CORP., priority 2016, dated 2020)
